Test results: patent US7989422B2, “Antibacterial agents” (Alchemia Limited, priority 2005, dated 2011)

Assays:
Type in all cases: cell-based
[1] = tested on: Staphylococcus aureus ATCC 25923; test: MIC against S. aureus, microbroth dilution in MH broth, without or with 5% horse serum; settings: MIC class; S. aureus ATCC 25923
Protocol: (§1) Testing was conducted to determine the in vitro antimicrobial activity of a series of compounds synthesised by Alchemia Pty Ltd. The antimicrobial activity of each compound was determined at a single concentration (128 μg/mL) in Mueller Hinton (MH) broth against the ATCC type strain of Staphylococcus aureus. […] Compounds showing activity at concentrations up to 32-64 μg/mL in the presence/absence of serum were then tested for MIC activity against a standard set of 5 microorganisms comprising of ATCC type strains of MRSA, Enterococcus faecalis, Enterococcus faecium, VRE and Escherichia coli. CLSI (formerly NCCLS) microbroth dilution technique was used.
(§2) Each compound is initially dissolved in 100 μL of DMSO. Each solution is then diluted further in 0.9 mL of sterile MH broth to give a total volume of 1 mL (1000 μg/mL) This stock solution is then further diluted in MH broth to give a test solution with final concentration of 128 μg/mL using the following formula: 0.5 ml stock in 3.4 ml MH broth
(§3) Each test organism was subcultured from the −70° C. deep freezer onto horse blood agar. The plates were streaked to obtain isolated colonies and incubated at 35° C. in non-CO2 incubator for 24 hours. A second subculture was carried out onto horse blood agar. For each test organism, 1-2 colonies were selected from an 18-24 hour culture and inoculated into 2 ml sterile MH broth. The turbidity was adjusted to 0.5 McFarland standard.
(§4) A 1:10 dilution in MH broth (200 μL in 2 ml MH) of the 0.5 McFarland control was prepared. 5 μL of this diluted solution was used to inoculate the trays.
100 μL of sterile MH broth was added in columns 2-12. 200 μL of test solution was added in column 1. 100 μL was transferred in column 2 giving a ½ dilution. 100 μL from column 2 was then transferred to column 3 (¼ dilution). This dilution was carried on until column 12. A second tray containing the same test solution was inoculated in a similar manner using sterile MH broth with 5% heat inactivated horse serum. 5 μL of organism solution was then added to each well. The plates were then sealed and incubated at 35° C. in a non-CO2 incubator for 18-24 hours. The plates were examined for growth after the incubation time.
(§5) If the test organism is sensitive to the compound in the broth the growth will be inhibited. Similarly, if the organism grows on the antibiotic containing medium then it is resistant to this particular antibiotic.

[2] = tested on: Staphylococcus aureus (MRSA) ATCC 33591; test: MIC against MRSA, microbroth dilution; settings: MIC class
Protocol: as §1, §2, §3, §4
(§6) The trays were prepared in a similar way as mentioned above and incubated at 35° C. in a non-CO2 incubator for 18-24 hours. The plates were examined for growth after the incubation time.
(§7) After 18-24 hour incubation 5 μL from each well was then inoculated onto horse blood agar and incubated for 18-24 hours at 35° C. in a non-CO2 incubator.
as §5

[3] = tested on: Enterococcus faecium ATCC 35667; test: MIC against E. faecium, microbroth dilution; settings: MIC class
Protocol: as §1, §2, §3, §4, §6, §7, §5

E. Faecium 51299 VanB = test: MIC against vancomycin-resistant enterococcus 51299 (VanB), microbroth dilution; settings: MIC class; ATCC 51299 VanB
Protocol: as §1, §2, §3, §4, §6, §7, §5

[4] = tested on: Enterococcus faecalis ATCC 29212; test: MIC against E. faecalis, microbroth dilution; settings: MIC class
Protocol: as §1, §2, §3, §4, §6, §7, §5

| SMILES | S. Aureus 25923 activity [1] | further results |
| --- | --- | --- |
| NC(Cc1ccc(-c2ccccc2)cc1)C(=O)NC1C(CO)OCC(n2c(O)nc3cc(C(F)(F)F)cc(Cl)c32)C1O (stereo not drawn) [Compound 161] | + (“+”: MIC (μg/mL): 64 ≧ MIC > 16) | S. Aureus 33591 MRSA activity [2]: + (“+”: MIC (μg/mL): 64 ≧ MIC > 16); E. Faecium 35667 activity [3]: − (“−”: MIC (μg/mL): MIC > 64); E. Faecium 51299 VanB activity (E. Faecium 51299 VanB): − (“−”: MIC (μg/mL): MIC > 64); E. Fecalis 29212 activity [4]: + (“+”: MIC (μg/mL): 64 ≧ MIC > 16) |
| O=C(Nc1ccc(Cl)c(C(F)(F)F)c1)NC1COC(CO)C(n2c(NCc3ccc(Cl)cc3)nc3cc(C(F)(F)F)ccc32)C1O (stereo not drawn) [Compound 247] | ++ (“++”: MIC (μg/mL): MIC ≦ 16) | S. Aureus 33591 MRSA activity [2]: ++ (“++”: MIC (μg/mL): MIC ≦ 16); E. Faecium 35667 activity [3]: − (“−”: MIC (μg/mL): MIC > 64); E. Faecium 51299 VanB activity (E. Faecium 51299 VanB): ++ (“++”: MIC (μg/mL): MIC ≦ 16); E. Fecalis 29212 activity [4]: ++ (“++”: MIC (μg/mL): MIC ≦ 16) |
| CCCCCCCCCCCCC(N)C(=O)NC1C(CO)OCC(n2c(N)nc3cc(C(F)(F)F)cc(Cl)c32)C1O (stereo not drawn) [Compound 187] | ++ (“++”: MIC (μg/mL): MIC ≦ 16) | S. Aureus 33591 MRSA activity [2]: ++ (“++”: MIC (μg/mL): MIC ≦ 16); E. Faecium 35667 activity [3]: + (“+”: MIC (μg/mL): 64 ≧ MIC > 16); E. Faecium 51299 VanB activity (E. Faecium 51299 VanB): ++ (“++”: MIC (μg/mL): MIC ≦ 16); E. Fecalis 29212 activity [4]: ++ (“++”: MIC (μg/mL): MIC ≦ 16) |
| Nc1ccccc1OC1C(NC(=O)Nc2ccc(Cl)c(C(F)(F)F)c2)COC(CO)C1NS(=O)(=O)c1ccc(-c2ccccc2)cc1 (stereo not drawn) [Compound 62] | + (“+”: MIC (μg/mL): 64 ≧ MIC > 16) | S. Aureus 33591 MRSA activity [2]: ++ (“++”: MIC (μg/mL): MIC ≦ 16); E. Faecium 35667 activity [3]: − (“−”: MIC (μg/mL): MIC > 64); E. Faecium 51299 VanB activity (E. Faecium 51299 VanB): − (“−”: MIC (μg/mL): MIC > 64); E. Fecalis 29212 activity [4]: − (“−”: MIC (μg/mL): MIC > 64) |
| O=S(=O)(NC1COC(CO)C(n2c(NCc3ccc(Cl)cc3)nc3cc(C(F)(F)F)cc(Cl)c32)C1O)c1ccc(C(F)(F)F)cc1 (stereo not drawn) [Compound 275] | ++ (“++”: MIC (μg/mL): MIC ≦ 16) |  |
| Nc1ccccc1OC1C(NS(=O)(=O)c2ccc(C(F)(F)F)cc2)COC(CO)C1NC(=O)C(N)Cc1ccc(-c2ccccc2)cc1 (stereo not drawn) [Compound 79] | + (“+”: MIC (μg/mL): 64 ≧ MIC > 16) | S. Aureus 33591 MRSA activity [2]: + (“+”: MIC (μg/mL): 64 ≧ MIC > 16); E. Faecium 35667 activity [3]: − (“−”: MIC (μg/mL): MIC > 64); E. Faecium 51299 VanB activity (E. Faecium 51299 VanB): − (“−”: MIC (μg/mL): MIC > 64); E. Fecalis 29212 activity [4]: − (“−”: MIC (μg/mL): MIC > 64) |
| O=C(Nc1ccc(Cl)c(C(F)(F)F)c1)NC1COC(CO)C(n2c(NCc3cccc(Oc4ccccc4)c3)nc3cc(C(F)(F)F)cc(Cl)c32)C1O (stereo not drawn) [Compound 258] | ++ (“++”: MIC (μg/mL): MIC ≦ 16) |  |
| O=C(NC1C(CO)OCC(NS(=O)(=O)c2ccc(Cl)c(C(F)(F)F)c2)C1O)c1ccc(-c2ccc(Cl)cc2)cc1 (stereo not drawn) [Compound 12] | + (“+”: MIC (μg/mL): 64 ≧ MIC > 16) |  |
| O=C(Nc1ccc(Cl)c(C(F)(F)F)c1)NC1COC(CO)C(n2c(NCc3ccc4ccccc4c3)nc3cc(C(F)(F)F)cc(Cl)c32)C1O (stereo not drawn) [Compound 261] | ++ (“++”: MIC (μg/mL): MIC ≦ 16) |  |
| O=S(=O)(NC1COC(CO)C(n2c(Nc3ccc(-c4ccccc4)cc3)nc3cc(C(F)(F)F)ccc32)C1O)c1ccc(C(F)(F)F)cc1 (stereo not drawn) [Compound 264] | ++ (“++”: MIC (μg/mL): MIC ≦ 16) |  |
| O=C(Nc1ccc(Cl)c(C(F)(F)F)c1)NC1COC(CO)C(n2c(NCc3ccc(-c4ccccc4)cc3)nc3cc(C(F)(F)F)cc(Cl)c32)C1O (stereo not drawn) [Compound 259] | ++ (“++”: MIC (μg/mL): MIC ≦ 16) |  |
| CC(C)(C)c1ccc(CNc2nc3cc(C(F)(F)F)ccc3n2C2C(CO)OCC(NS(=O)(=O)c3ccc(C(F)(F)F)cc3)C2O)cc1 (stereo not drawn) [Compound 267] | ++ (“++”: MIC (μg/mL): MIC ≦ 16) |  |
| O=S(=O)(NC1COC(CO)C(n2c(NCc3ccc(Cl)cc3)nc3cc(C(F)(F)F)ccc32)C1O)c1ccc(C(F)(F)F)cc1 (stereo not drawn) [Compound 266] | ++ (“++”: MIC (μg/mL): MIC ≦ 16) |  |
| O=S(=O)(NC1COC(CO)C(n2c(Nc3ccc(Cl)cc3)nc3cc(C(F)(F)F)cc(Cl)c32)C1O)c1ccc(C(F)(F)F)cc1 (stereo not drawn) [Compound 271] | ++ (“++”: MIC (μg/mL): MIC ≦ 16) |  |
| O=S(=O)(NC1COC(CO)C(n2c(NCc3ccccc3)nc3cc(C(F)(F)F)cc(Cl)c32)C1O)c1ccc(C(F)(F)F)cc1 (stereo not drawn) [Compound 274] | ++ (“++”: MIC (μg/mL): MIC ≦ 16) |  |
| O=S(=O)(NC1COC(CO)C(n2c(Nc3ccc(-c4ccccc4)cc3)nc3cc(C(F)(F)F)cc(Cl)c32)C1O)c1ccc(C(F)(F)F)cc1 (stereo not drawn) [Compound 273] | ++ (“++”: MIC (μg/mL): MIC ≦ 16) |  |
| Nc1ccccc1OC1C(NC(=O)Nc2ccc(Cl)c(C(F)(F)F)c2)COC(CO)C1NC(=O)CC(N)c1ccc(-c2ccccc2)cc1 (stereo not drawn) [Compound 72] | ++ (“++”: MIC (μg/mL): MIC ≦ 16) |  |
| CC(C)(C)c1ccc(CNc2nc3cc(C(F)(F)F)cc(Cl)c3n2C2C(CO)OCC(NS(=O)(=O)c3ccc(C(F)(F)F)cc3)C2O)cc1 (stereo not drawn) [Compound 276] | + (“+”: MIC (μg/mL): 64 ≧ MIC > 16) |  |
| O=S(=O)(NC1COC(CO)C(n2c(Nc3ccc(C(F)(F)F)cc3)nc3cc(C(F)(F)F)cc(Cl)c32)C1O)c1ccc(C(F)(F)F)cc1 (stereo not drawn) [Compound 272] | ++ (“++”: MIC (μg/mL): MIC ≦ 16) |  |
| O=S(=O)(NC1COC(CO)C(n2c(Nc3ccc(Cl)cc3)nc3cc(C(F)(F)F)ccc32)C1O)c1ccc(C(F)(F)F)cc1 (stereo not drawn) [Compound 262] | + (“+”: MIC (μg/mL): 64 ≧ MIC > 16) |  |
| O=S(=O)(NC1COC(CO)C(n2c(NCc3ccc(-c4ccccc4)cc3)nc3cc(C(F)(F)F)ccc32)C1O)c1ccc(C(F)(F)F)cc1 (stereo not drawn) [Compound 269] | ++ (“++”: MIC (μg/mL): MIC ≦ 16) |  |
| O=S(=O)(NC1COC(CO)C(n2c(NCc3ccc4ccccc4c3)nc3cc(C(F)(F)F)cc(Cl)c32)C1O)c1ccc(C(F)(F)F)cc1 (stereo not drawn) [Compound 279] | ++ (“++”: MIC (μg/mL): MIC ≦ 16) |  |
| O=S(=O)(NC1COC(CO)C(n2c(NCc3cccc(Oc4ccccc4)c3)nc3cc(C(F)(F)F)cc(Cl)c32)C1O)c1ccc(C(F)(F)F)cc1 (stereo not drawn) [Compound 277] | + (“+”: MIC (μg/mL): 64 ≧ MIC > 16) |  |
| O=S(=O)(NC1COC(CO)C(n2c(NCc3cccc(Oc4ccccc4)c3)nc3cc(C(F)(F)F)ccc32)C1O)c1ccc(C(F)(F)F)cc1 (stereo not drawn) [Compound 268] | ++ (“++”: MIC (μg/mL): MIC ≦ 16) |  |
| O=S(=O)(NC1COC(CO)C(n2c(Nc3ccc(C(F)(F)F)cc3)nc3cc(C(F)(F)F)ccc32)C1O)c1ccc(C(F)(F)F)cc1 (stereo not drawn) [Compound 263] | ++ (“++”: MIC (μg/mL): MIC ≦ 16) |  |
| O=S(=O)(NC1COC(CO)C(n2c(NCc3ccc4ccccc4c3)nc3cc(C(F)(F)F)ccc32)C1O)c1ccc(C(F)(F)F)cc1 (stereo not drawn) [Compound 270] | ++ (“++”: MIC (μg/mL): MIC ≦ 16) |  |
| O=S(=O)(NC1COC(CO)C(n2c(NCc3ccc(-c4ccccc4)cc3)nc3cc(C(F)(F)F)cc(Cl)c32)C1O)c1ccc(C(F)(F)F)cc1 (stereo not drawn) [Compound 278] | ++ (“++”: MIC (μg/mL): MIC ≦ 16) |  |
| O=S(=O)(NC1COC(CO)C(n2c(NCc3ccccc3)nc3cc(C(F)(F)F)ccc32)C1O)c1ccc(C(F)(F)F)cc1 (stereo not drawn) [Compound 265] | + (“+”: MIC (μg/mL): 64 ≧ MIC > 16) |  |
